Square brackets hold non-standard residues; d marks the D form. Peptide text beside a SMILES is read from it. Nle = CCCC[C@H](N)C(=O)O
How the values were obtained:
Vm10 cells [1] = experiment: AMC caspase assay specific for caspase 3 (apoptosis); format: cell-based, murine
Description: Apoptosis was quantitated using the AMC caspase assay specific for caspase 3 (Pharmingen). Vm10 cells were grown at 39 degrees or temperature-shifted to 32 degrees for 24 hours in the presence or absence of 100 nM trichostatin A (TSA). Vm10 cells at 39 degrees were treated with staurosporine (Calbiochem) at 100 nM, or dilution vehicle (dimethyl sulfoxide), or tumor necrosis factor alpha plus cycloheximide (10 ng/mL TNFα, RD Systems, plus 40 ug/mL cycloheximide, Sigma). Cells were harvested, lysed, and lysate was monitored for the caspase-3-dependent hydrolysis of the fluorogenic substrate Ac-DEVD-AMC, according to protocols derived from the manufacturer (Pharmingen). As a control for non-specific proteolysis, lysates from 39 degrees and 32 degrees were also assayed in the presence of the caspase-3 inhibitor Ac-DEVD-CHO (N-acetyl-Asp-Glu-Val Asp-aldehyde, Pharmingen). Fluorescence emissions were quantified on a spectrofluorometer (VersaFluor Cuvette Fluorometer) with excitation wavelength of 360 nm. and emission of 460 nm. The data presented represent duplicate readings of the averaged values from two (TNFα and staurosporine) or three (temperature shift) independent experiments.
In order to assess the contribution of p53-mediated repression to apoptosis, we utilized the cell line Vm10. This murine cell line contains a stably-transfected p53 gene encoding a temperature-sensitive protein, as well as a constitutively expressed c-myc proto-oncogene; the characteristics of this line, and its ability to undergo apoptosis at 32 degrees, have been described (Chen et al., Mol Med 1:142–152, 1996). Temperature shift and wt p53 induction of these cells results in a significant increase in caspase-3 dependent AMC-DEVD hydrolysis, a read-out for apoptosis, as measured in a spectrofluorometric assay. […] Therefore, the ability of TSA to inhibit apoptosis is specific for p53-dependent apoptosis.

MCF-7 cells [2] = experiment: Immunoprecipitation-western analysis of p53 and p53-mSin3a complexes; format: cell-based, human; conditions: MCF-7, 50 uM ALLN, 2 hours
Description: (§1) Sub-confluent cultures of MCF 7 and A2780 cells were treated with 100 nM trichostatin A (TSA, Sigma)for 2 hours, followed by incubation with 0.5 ug/ml adriamycin (doxorubicin, Sigma) for the indicated timepoints. Va15 cells grown at 39 degrees were treated with 100 nM TSA for two hours, followed by temperature shift to 32 degrees for 12 hours. p53 induction was monitored by western analysis of 100 ug protein as described (Murphy et al., Genes & Devel. 10:2971–2980, 1996), using 0.1ug/ml DO-1 (Ab-6, Calbiochem) or 421 (Ab-1, Calbiochem). MDM2 induction was monitored using the monoclonal antibody 2A10, kindly provided by Arnold Levine (Rockefeller University). For UV treatments, cells were irradiated with 4 J/m2 of UV-C with a Spectroline X series ultraviolet lamp, and output was monitored with a traceable UV light meter (Fisher Scientific). For ALLN treatment, MCF-7 cells were treated with 50 uM ALLN (calpain I inhibitor, Sigma) made in DMSO (dimethyl sulfoxide, Sigma) or with DMSO alone for 2 hours prior to harvesting.
Sub-confluent cultures of cells were harvested and lysed in NP-40 buffer supplemented with protease inhibitors (1 mM PMSF, 10 ug/ml pepstatin A, 10 ug/ml aprotinin, and 5ug/ml leupeptin). Protein concentrations were determined by the method of Bradford (BioRad). Equal ug amounts of protein (between 2.0 and 3.0 mg) were immunoprecipitated with 1 ug of each antibody, except for Va15 immunoprecipitations, which used 1000 ug protein, as described (Murphy et al., Genes & Devel. 10:2971–2980, 1996). For p300, antibody N15 (Santa Cruz Biotechnology) and AB-1 (Calbiochem) yielded similar results. Each IP was washed twice in NP-40 buffer (Wu, et al., Genes & Devel. 7:1126–1132, 1993), followed by 2 washes in RIPA buffer (50 mM Tris pH 7.4/150 mM NaCl/1% Triton X 100/0.1% SDSI 1% Na deoxycholate). Immunoprecipitations were run on 7.5–10% SDS-PAGE gels and transferred overnight onto Immuno-Blot PVDF membrane (BioRad). […]
These complexes persisted under stringent washing conditions (RIPA buffer washes, see Materials and Methods), and were not present using control antisera (rabbit IgG, lane 1). […] We next analyzed the p53-mSin3a interaction following post-translational stabilization of p53 mediated by DNA damaging agents. […]
We next analyzed the time-course of the p53-mSin3a interaction following exposure of cells to the DNA damaging agent adriamycin (doxorubicin). Both p53-mSin3a and p53 p300 complexes were monitored by IP-western analysis in a time course following adriamycin treatment of MCF-7 cells. As a control, p53 was immunoprecipitated using polyclonal antisera generated against full-length p53 (Santa Cruz Biotechnology). p53 levels were also assessed at each time point by western analyses (data not shown). […]

Va15 cells [3] = experiment: Western analysis of survivin in nocodazole-arrested cells; format: cell-based, murine; conditions: Va15 at 39 degrees, nocodazole alone, twenty-four hours
Description: Western analysis was performed essentially as described (Murphy et al., 1999). Briefly, subconfluent cells were harvested and lysed in RIPA buffer (50 mM Tris at pH 7.4, 150 mM NaCl, 1% Triton X-100, 0.1% SDS, and 1% sodium deoxycholate) supplemented with protease inhibitors (1 mM PMSF, […], […], and […]). Protein concentrations were determined using the Bio-Rad Dc Protein Assay (Bio-Rad). Equal amounts of protein (between 50 and 120 ugs) were run on 10% or 12% SDS-polyacrylamide gels and transferred overnight onto PVDF membrane (Bio-Rad). Western blots were incubated in antibody in 5% nonfat dry milk in phosphate-buffered saline supplemented with 0.2% Tween 20 (PBST). Blots were incubated with primary antibody at the following dilutions: p53 Ab-6 (Calbiochem) 1:1000, actin, AC-15 (Sigma) at 1:5000, p21/waf1 (Calbiochem) 1:1000 and survivin (Novus) 1:1000. Blots were washed with PBST and incubated in horseradish peroxidase-linked secondary antibody (Jackson ImmunoResearch Laboratories) and developed via the chemiluminescence protocol provided by the manufacturer (NEN).
Va15 cells (temperature-sensitive p53 which is wild type at 32 degrees) were grown at 39 degrees (mutant p53, asynchronous growth), and arrested in G2/M following twenty-four hours of nocodazole treatment. […]

Va15 cells [4] = experiment: Northern analysis of Map4 mRNA after p53 induction by temperature shift; format: cell-based, murine; conditions: temperature shift to 32 degrees (wt p53), 100 nM TSA
Description: as §1
Total RNA was isolated from cells using CsC1 purification (Murphy et al., Genes & Devel. 10:2971–2980, 1996) or using Trizol, as per the manufacturer (Gibco/BRL). Northern analyses were performed as described (Murphy et al., Genes & Devel. 10:2971–2980, 1996). […] Autoradiographs were quantitated using NIH image software. […]

Va15 cells [5] = experiment: Flow cytometric analysis of cell cycle distribution; format: cell-based, murine; conditions: Va15 cells cultured at 32 degrees, TSA treatment, data not shown
A2780 cells = experiment: Northern analysis of stathmin mRNA after adriamycin treatment; format: cell-based, human; conditions: A2780, co-incubation with TSA, data not shown
Description: as §1
(§2) Total RNA was isolated from cells using CsC1 purification (Murphy et al., Genes & Devel. 10:2971–2980, 1996) or using Trizol, as per the manufacturer (Gibco/BRL). Northern analyses were performed as described (Murphy et al., Genes & Devel. 10:2971–2980, 1996). Probes for Northerns were radio labeled using random primers (Prime-It-II, Stratagene) and α^32P dCTP (NEN). Autoradiographs were quantitated using NIH image software. The average values from three independent experiments were plotted onto bar graphs following normalization to GAPDH.
(§3) To extend these observations, the human tumor derived cell lines MCF7 (breast carcinoma)and A2780 (ovarian carcinoma) were analyzed following treatment with adriamycin to activate the endogenous, wild type p53 protein. Because of difficulties detecting human Map4 message, we analyzed the mRNA levels of stathmin (also called oncoprotein 18). We recently identified stathmin as a p53-repressed gene. A time course of treatment of MCF-7 cells with the DNA-damaging agent adriamycin (doxorubicin, DOX) results in approximately 30% reduction of stathmin RNA levels after 8 hours and 75% reduction after 24 hours. We chose to focus further on the 12 hour timepoint of adriamycin treatment, where 50% repression of stathmin was evident, in order to limit the toxicity sometimes associated with TSA (Yoshida et al., J Biol Chem 265:17174–17179, 1990). […] The results of three independent experiments indicate that the repression of stathmin expression evident after 12 hours of adriamycin treatment is completely abrogated by incubation with TSA. In contrast, neither the post-translational stabilization of p53 by adriamycin (DOX) nor the induction of the p53 response genes mdm2 and p21/waf1 were affected by TSA. […] We have performed identical experiments in A2780 cells (ovarian carcinoma, wt p53).

MCF-7 cells [6] = experiment: as above; format: cell-based, human
Description: as §1, §2, §3

[7] = system: H1299 human lung adenocarcinoma; experiment: Northern analysis of stathmin mRNA in p53-null cells; format: cell-based; conditions: H1299, null for p53
Vm10 cells [8] = experiment: Flow cytometry of sub-G1 population; format: cell-based, murine; conditions: Vm10 at 32 degrees (wt p53), 100 nM TSA, data not shown

## N-acetyl-Asp-Glu-Val Asp-aldehyde [Ac-DEVD-CHO]
Vm10 cells [1]; Vm10 lysate, addition of Ac-DEVD-CHO
  AMC cleavage in lysate with caspase-3 inhibitor added: negligible AMC cleavage

## CCCC[C@@H](C=O)NC(=O)[C@H](CC(C)C)NC(=O)[C@H](CC(C)C)NC(C)=O [ALLN] (Ac-Leu-Leu-[Nle]-aldehyde)
MCF-7 cells [2]
  increase in p53 protein: approximately 4 fold
  increase in the p53-mSin3a complex: undetectable increase in the p53-mSin3a complex

## COC(=O)Nc1nc2ccc(C(=O)c3cccs3)cc2[nH]1 [nocodazole]
Va15 cells [3]
  survivin expression: increased survivin expression

## CC(/C=C/C(=O)NO)=C\[C@@H](C)C(=O)c1ccc(N(C)C)cc1 [TSA, trichostatin A]
Va15 cells [4]
  Map4 RNA levels, % of starting levels: approximately 80%
Va15 cells [5]
  cell cycle distribution: did not alter the cell cycle distribution
A2780 cells
  effect on adriamycin-induced repression of stathmin: abrogate completely this repression
MCF-7 cells [6]; MCF-7, 100 nM TSA alone
  effect on stathmin levels, TSA alone: undetectable effects on stathmin levels
MCF-7 cells [6]; MCF-7, 100 nM TSA plus adriamycin 12 hours
  effect on reduction of stathmin levels following adriamycin treatment: completely abrogate the reduction of stathmin levels
[7]
  effect on stathmin levels: neither TSA nor adriamycin had any effect on stathmin levels
Vm10 cells [1]; Vm10 at 32 degrees (wt p53), 100 nM TSA, 24 hours
  inhibition of caspase-3-dependent AMC hydrolysis: greater than 4 fold
Vm10 cells [1]; Vm10 at 39 degrees (mutant p53), TSA treatment
  inhibition of apoptosis induced by staurosporine or tumor necrosis factor alpha: unable to significantly inhibit apoptosis
Vm10 cells [8]
  sub-G1 population: reduces the sub-G1 population
